Laboratory results from PubChem BioAssay (NCI).
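Interpolation was linear, between the two tested concentrations surrounding the appropriate level; five concentrations were tested over 48 hours in 96-well plates. GI50 = concentration required for 50% inhibition of growth. TGI: concentration producing complete growth inhibition.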

How the values were obtained:
Assay in all cases: NCI tumour cell line growth inhibition, 48 h
[1] = tested on: 786-0 renal
[2] = tested on: A498 renal
[3] = tested on: A549 NSCLC
[4] = tested on: ACHN renal
[5] = tested on: BT-549 breast
[6] = tested on: CAKI-1 renal
[7] = tested on: CCRF-CEM leukemia
[8] = tested on: COLO 205 colon
[9] = tested on: DU-145 prostate
[10] = tested on: EKVX NSCLC
[11] = tested on: HCC-2998 colon
[12] = tested on: HCT-116 colon
[13] = tested on: HCT-15 colon
[14] = tested on: HL-60(TB) leukemia
[15] = tested on: HOP-92 NSCLC
[16] = tested on: HS 578T breast
[17] = tested on: HT29 colon
[18] = tested on: IGROV1 ovarian
[19] = tested on: K-562 leukemia
[20] = tested on: KM12 colon
[21] = tested on: LOX IMVI melanoma
[22] = tested on: M14 melanoma
[23] = tested on: MALME-3M melanoma
[24] = tested on: MCF7 breast
[25] = tested on: MDA-MB-231 breast
[26] = tested on: MDA-MB-435
[27] = tested on: MOLT-4 leukemia
[28] = tested on: NCI-H226 lung
[29] = tested on: NCI-H23 lung
[30] = tested on: NCI-H460 lung
[31] = tested on: NCI-H522 lung
[32] = tested on: NCI/ADR-RES ovarian
[33] = tested on: OVCAR-3 ovarian
[34] = tested on: OVCAR-4 ovarian
[35] = tested on: OVCAR-5 ovarian
[36] = tested on: OVCAR-8 ovarian
[37] = tested on: PC-3 prostate
[38] = tested on: RPMI-8226 leukemia
[39] = tested on: RXF 393 renal
[40] = tested on: SF-268 CNS
[41] = tested on: SF-295 CNS
[42] = tested on: SF-539 CNS
[43] = tested on: SK-MEL-2 melanoma
[44] = tested on: SK-MEL-28 melanoma
[45] = tested on: SK-MEL-5 melanoma
[46] = tested on: SK-OV-3 ovarian
[47] = tested on: SN12C renal
[48] = tested on: SNB-19 CNS
[49] = tested on: SNB-75 CNS
[50] = tested on: SR leukemia
[51] = tested on: SW-620 colon
[52] = tested on: T-47D breast
[53] = tested on: TK-10 renal
[54] = tested on: U251 CNS
[55] = tested on: UACC-257 melanoma
[56] = tested on: UACC-62 melanoma
[57] = tested on: UO-31 renal

O=C([O][Hg][CH2]C1OCCOC1[CH2][Hg][O]C(=O)c1ccccc1)c1ccccc1 (stereo not drawn)
GI50 [1]: 12.9 µM | TGI [1]: 25.5 µM | GI50 [2]: 20.3 µM | TGI [2]: 34.8 µM | GI50 [3]: 16.7 µM | TGI [3]: 32.8 µM | GI50 [4]: 1.95 µM | TGI [4]: 3.4 µM | GI50 [5]: 8.22 µM | TGI [5]: 20.4 µM | GI50 [6]: 1.74 µM | TGI [6]: 3.12 µM | GI50 [7]: 1.66 µM | TGI [7]: > 23.4 µM | GI50 [8]: 1.82 µM | TGI [8]: 3.27 µM | GI50 [9]: 16.1 µM | TGI [9]: 29.6 µM | GI50 [10]: 18.3 µM | TGI [10]: 35.5 µM | GI50 [11]: 17.1 µM | TGI [11]: 30.8 µM | GI50 [12]: 4.21 µM | TGI [12]: 8.37 µM | GI50 [13]: 8.95 µM | TGI [13]: 24.9 µM | GI50 [14]: 2.67 µM | TGI [14]: 7.41 µM | GI50 [15]: 37.6 µM | TGI [15]: 59.4 µM | GI50 [16]: 16.1 µM | TGI [16]: 43.9 µM | GI50 [17]: 5.77 µM | TGI [17]: 10.6 µM | GI50 [18]: 10.1 µM | TGI [18]: 26.9 µM | GI50 [19]: 1.83 µM | TGI [19]: 5.46 µM | GI50 [20]: 16.3 µM | TGI [20]: 30.1 µM | GI50 [21]: 3.66 µM | TGI [21]: 7.56 µM | GI50 [22]: 5.2 µM | TGI [22]: 9.52 µM | GI50 [23]: 2.18 µM | TGI [23]: 3.88 µM | GI50 [24]: 1.97 µM | TGI [24]: 24.4 µM | GI50 [25]: 16.3 µM | TGI [25]: 31.7 µM | GI50 [26]: 15.9 µM | TGI [26]: 29.3 µM | GI50 [27]: 2.13 µM | TGI [27]: 5.37 µM | GI50 [28]: 22.5 µM | TGI [28]: 47.3 µM | GI50 [29]: 8.21 µM | TGI [29]: 21.3 µM | GI50 [30]: 19.1 µM | TGI [30]: 36.2 µM | GI50 [31]: 0.0642 µM | TGI [31]: 0.23 µM | GI50 [32]: 18.7 µM | TGI [32]: 40.7 µM | GI50 [33]: 2.16 µM | TGI [33]: 3.8 µM | GI50 [34]: 6.07 µM | TGI [34]: 12.7 µM | GI50 [35]: 22.3 µM | TGI [35]: 36.7 µM | GI50 [36]: 14.9 µM | TGI [36]: 44 µM | GI50 [37]: 6.52 µM | TGI [37]: 14.6 µM | GI50 [38]: 7.5 µM | TGI [38]: > 22.6 µM | GI50 [39]: 2.08 µM | TGI [39]: 4.06 µM | GI50 [40]: 17.2 µM | TGI [40]: 30.9 µM | GI50 [41]: 17.6 µM | TGI [41]: 32.7 µM | GI50 [42]: 13.3 µM | TGI [42]: 29.7 µM | GI50 [43]: 5.05 µM | GI50 [44]: 5.13 µM | TGI [44]: 16.8 µM | GI50 [45]: 7.58 µM | TGI [45]: 22.8 µM | GI50 [46]: 19.4 µM | TGI [46]: 34.1 µM | GI50 [47]: 13.2 µM | TGI [47]: 27.9 µM | GI50 [48]: 16.5 µM | TGI [48]: 30.8 µM | GI50 [49]: 16 µM | TGI [49]: 29.5 µM | GI50 [50]: 2.22 µM | TGI [50]: 7.21 µM | GI50 [51]: 1.54 µM | TGI [51]: 3 µM | GI50 [52]: 1.82 µM | TGI [52]: 3.59 µM | GI50 [53]: 1.91 µM | TGI [53]: 3.35 µM | GI50 [54]: 15.1 µM | TGI [54]: 28.4 µM | GI50 [55]: 1.89 µM | TGI [55]: 3.4 µM | GI50 [56]: 16.5 µM | TGI [56]: 30.3 µM | GI50 [57]: 1.79 µM | TGI [57]: 3.27 µM
